In patent publication US20180282279A1, “Pantothenamide Analogues” (Radboud Universitair Medisch Centrum, priority 2014, published 2018):
Values after ≈ are worked out from the molar mass of the structure shown. Read-outs that look alike come from different tables or passages of the source. Values belong to the compound of their own block, whether it stands above or below them.

Experiments:
[1] = test system: Staphylococcus epidermidis; test: Bacterial growth assay and MIC determination, S. epidermidis; format: cell-based; conditions: Staphylococcus epidermidis
Experimental: (§1) Strains of Escherichia coli, Staphylococcus aureus and Staphylococcus epidermidis, were grown overnight in 1% Bacto tryptone medium (BD, Sparks, Md.). Streptococcus pyogenes was grown overnight in Bacto Todd Hewitt Broth medium (BD, Sparks, Md.). Cultures were then diluted 1:1,000 in fresh assay medium supplemented with or without 20% fetal bovine serum (FBS; HyClone, Celbio, Logan, Utah) and added to 96-well sterile enzyme-linked immunosorbent assay (ELISA) plates (100 μl per well). The compounds to be tested were diluted in the medium without serum and added to the bacteria (100 μl per well). Plates were incubated at 37° C., and bacterial growth was monitored over time by reading the optical density at 490 nm using a microplate reader (model 450; Bio-Rad Laboratories Inc., Hercules, Calif.). Streptococcus pneumoniae strains were grown to mid-log phase (OD620 of 0.3) and stored in 15% glycerol at […] till further use. Minimal inhibitory concentration (MIC) of antibiotics was determined according to standard procedures. Bacteria were diluted 10-fold in Mueller-Hinton medium (BD, Sparks, Md.) and added to 96-well sterile ELISA plates (150 μl per well). The compounds to be tested were diluted in the medium without serum and added to the bacteria (150 μl per well). Plates were incubated overnight at 37° C. in 5% CO2. The MIC was defined as the lowest concentration of compound at which no growth was visible with the naked eye.

[2] = Pharmacokinetic study in rats; format: in vivo; conditions: rat, blood, 50 mg/kg in saline, oral administration
Experimental: To address the question if increased stability would also lead to improved bioavailability in vivo, a pharmacokinetic study was performed. Briefly, the pantothenamides N5-Pan (an antibacterial compound) and CXP18.3-002 (an antimalarial compound), and their corresponding inverted amides CXP18.6-013 and CXP18.6-006 were administered to rats at 50 mg/kg dissolved in saline. Blood samples were collected from 3 rats before the experiment and at 0.25, 0.5, 1, 2, 4, 6, 8, 12 and 24 h. The concentrations of the compounds were analyzed by LC-MS/MS (AB Sciex API-4000 system). Data were analyzed by the Non-compartmental analysis tool of Phoenix WinNonlin (Version 6.3).

Streptococcus pyogenes = test: Bacterial growth assay and MIC determination, S. pyogenes; format: cell-based; conditions: Streptococcus pyogenes; S. pyogenes, serum −; read-out: MIC
Experimental: as §1

Escherichia coli = test: Bacterial growth assay and MIC determination, E. coli; format: cell-based; conditions: Escherichia coli, serum −, read-out: MIC
Experimental: as §1

[3] = test system: transgenic P. falciparum NF54 strain that expresses a luciferase reporter gene, in Anopheles stephensi mosquitoes; test: Standard Membrane Feeding Assay (SMFA), luciferase reporter; format: in vivo, Plasmodium falciparum; conditions: for IC50: indirect mode of the SMFA
Experimental: To assess the effect of a reduction in gametocyte viability and or capacity to form a gamete on actual transmission of the parasites, Standard Membrane Feeding Assays (SMFA) were performed using a transgenic P. falciparum NF54 strain that expresses a luciferase reporter gene from a hsp70 promoter. Parasite cultures showing ˜3% mature gametocytes were checked for the ability to show exflagellation after addition of xanthurenic acid to a final concentration of 40 μM. Infectivity of cultures showing positive exflagellation was tested in a ‘prefeed’ experiment as described previously (Antimicrob Agents Chemother, 2012. 56(7): p. 3544-8). Cultures showing development of retorts and ookinetes in the mosquito midgut were selected for testing of compounds. In the indirect mode of the assay, gametocytes were pre-incubated with compound prior to mosquito feeding. To this end, 40 μl compound diluted in parasite culture medium was added to 360 μl of parasite culture and incubated for 24 hrs at 37° C. in Eppendorf tubes (0.1% DMSO final concentration). Hereafter, 300 μl was added to 180 μl of packed red blood cells and centrifuged for 20 seconds at 10,000 g. After carefully aspirating the supernatant, 200 μl of human serum type A was added to the pellet. Finally, 300 μl was immediately injected into an individual membrane-covered minifeeder, where 50 Anopheles stephensi mosquitoes of 1-to-5-days old were allowed to feed for 10 minutes and non-fed mosquitoes were removed from the cage. Eight days after feeding, 20 mosquitoes were sacrificed and parasite luciferase activity was measured as described previously (Stone, J Infect Dis. 2014 in press). For the direct SMFA, 300 μl parasite culture was added to 180 μl red blood cells, centrifuged for 20 seconds at 10,000 g and the supernatant was carefully aspirated. Meanwhile, 10 μl of compound diluted in incomplete medium was added to 490 μl human serum type A (0.1% DMSO final). 200 μl of this compound containing human serum was added to the pellet, which was subsequently used for the SMFA as described above. For dose response analyses, compounds were diluted in DMSO with subsequent dilution in culture medium to a final DMSO concentration of 0.1%. Controls included vehicle (0.1% DMSO) and DHA at its approximate IC90 (10 μM). Data were analyzed by logistic regression using the formula: Y=Bottom+(Top−Bottom)/(1+10̂((Log IC50−X)*HillSlope)) and a least squares method to find the best fit.

[4] = test system: Plasmodium berghei strain 676c11 (PbGFP-Luc); test: In vivo rodent malaria model; conditions: female Wistar rats, 100 mg/kg orally three times a day, day 5-8
Source text: Female mice (C57 Black 6, 9-10 weeks of age at the start of the experiment) and female rats (Wistar, 150-200 grams at the beginning of the experiment) were housed under standard conditions and experiments were approved by the institutional ethical committee on animal care and experimentation of Radboud University Medical Centre (Nijmegen).
To test our compounds in an in vivo malaria model we used a well described rodent malaria model (Zuckerman and Yoeli, J Infect Dis. 94, 225-36). First, donor mice were infected by 0.2 ml cryopreserved infected blood stocks containing the transgenic Plasmodium berghei strain 676c11 (PbGFP-Luc). After four days the mice were sacrificed and their blood was collected. The parasitemia in the blood from the mice was calculated as percentage of infected red blood cells (RBC) by Giemsa-stained blood smears. Infected blood was diluted to 5×10^7 parasites per ml and 0.2 ml was i.p. injected in rats (inoculation of 10′ parasites per rat). Treatment with chloroquine (6 mg/kg), CXP18.6-017 (100 mg/kg) and CXP18.6-052 (100 mg/kg) started 5 days post inoculation and where given orally three times a day until day eight. From day 5 blood samples were collected and parasitemia was determined by analysis of Giemsa-stained blood smears. The infection and treatment regimes were well tolerated by the animals.

[5] = test system: S. aureus (SA), S. epidermidis (SE), S. pyogenes (SP), S. pneumoniae (SPn); test: MIC for most sensitive bacterial species (panel); format: cell-based; conditions: Table 1, no species named, read-out: MIC (μg/ml) for most sensitive bacterial species
Experimental: as §1

[6] = Table 1, most sensitive species S. epidermidis (SE), read-out: MIC (μg/ml) for most sensitive bacterial species
[7] = 24 hrs pre-incubation, read-out: IC50 on the average luciferase intensity
[8] = read-out: IC50 on parasite prevalence (percentage of infected mosquitoes)

MIC [1, 6]: 16 µg/mL (≈ 49.6 µM) | AUC(0-inf) [2]: 6620 ng·h/mL | Cmax [2]: 3360 ng/mL | Tmax [2]: 0.33 h | half-life ([2]; elimination phase): 3.6 h
Compound: CC(C)(CO)[C@@H](O)C(=O)NCCNC(=O)CCc1ccccc1 [CXP18.6-006]

Compound: CC(C)(CO)[C@@H](O)C(=O)NCCNC(=O)CCc1ccccc1F [CXP18.6-017]
MIC ([1]; S. epidermidis, serum −, read-out: MIC): 32 µg/mL (≈ 94 µM) | MIC [1, 6]: 2 µg/mL (≈ 5.88 µM) | MIC (Streptococcus pyogenes): 8 µg/mL (≈ 23.5 µM) | MIC (Escherichia coli): > 256 µg/mL | inhibitory effect in the indirect mode compared with the direct mode ([3]; gametocytes pre-exposed prior to mosquito feeding): stronger | luciferase intensity in the direct mode of the assay ([3]; in comparison with the DMSO control): reduced luciferase intensity | IC50 [3, 7]: 20 nM | IC50 [3, 8]: 178 nM | parasitemia [4]: reduced parasitemia with similar kinetics as found for chloroquine

Compound: Cc1ccc(CCC(=O)NCCNC(=O)[C@H](O)C(C)(C)CO)cc1 [CXP18.6-026]
MIC ([5]; tested for SA, SE, SP and SPn): > 32 µg/mL | IC50 [3, 7]: 107 nM | IC50 [3, 8]: 370 nM

Compound: CC(C)(CO)[C@@H](O)C(=O)NCCNC(=O)CCc1cccnc1 [CXP18.6-052]
MIC ([5]; Streptococcus pneumoniae, marked *: not tested for S. pneumoniae): > 32 µg/mL | parasitemia [4]: significant, albeit partial, reduction of parasitemia
